Measurements taken from the supplement of paper PMC4858399.

What was measured:
Details in all cases: exposure time 48 h
[1] = system: Caenorhabditis elegans N2; test: mean nematode size ln(EXT) after 48 h, plate-adjusted (DMSO control set to 6) (ln(EXT), control-adjusted); higher = larger nematodes / less growth inhibition
How it was run: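 Chemical at 0.5–200 µM was tested on synchronised C. elegans N2 L1 larvae grown for 48 h at 20°C in K-medium with killed OP50 and 1% DMSO. Per-worm Biosort extinction, cleared of debris by a growth model, was natural-logged and averaged per well to give mean size. Plates were normalised by subtracting the vehicle control mean and adding 6.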

[2] = system: Caenorhabditis elegans N2; test: AC50 for larval growth inhibition (Hill fit); higher = less potent
How it was run: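 C. elegans N2 L1 larvae, synchronised and plated at 50 per well in 96-well plates, were exposed for 48 h at 20°C to 0.5–200 µM chemical in K-medium with killed OP50 and 1% DMSO. Log-transformed extinction from a COPAS Biosort served as worm size, averaged per well. Wells containing at least 10 worms entered the fit. A constrained Hill fit by weighted genetic-algorithm regression yielded the AC50, censored when out of range.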

[3] = system: Caenorhabditis elegans N2; test: lowest effective concentration for larval growth inhibition (size below effect threshold); higher = less potent
How it was run: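 In 96-well plates, 50 C. elegans N2 L1 larvae per well were cultured at 20°C for 48 h in K-medium with killed bacteria and 1% DMSO, plus the chemical at 0.5, 1, 5, 10, 50, 100 or 200 µM. Size was measured as per-worm extinction on a Biosort and log-transformed into well means. Taking the first dose where the plate-adjusted mean size sits under 5.665 and stays there at higher doses gives the lowest effective concentration.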

Row | SMILES | mean nematode size ln(EXT) (ln) ([1]; 0.5 µM) | mean nematode size ln(EXT) (ln) ([1]; 1 µM) | mean nematode size ln(EXT) (ln) ([1]; 5 µM) | mean nematode size ln(EXT) (ln) ([1]; 10 µM) | mean nematode size ln(EXT) (ln) ([1]; 50 µM) | mean nematode size ln(EXT) (ln) ([1]; 100 µM) | mean nematode size ln(EXT) (ln) ([1]; 200 µM) | AC50 for larval growth inhibition [2] | lowest effective concentration [3]
1 | O=P(OC(CCl)CCl)(OC(CCl)CCl)OC(CCl)CCl [Tris(1,3-dichloro-2-propyl) phosphate (TDCPP)] | 5.85 | 5.86 | 5.83 | 5.77 | 5.39 | 4.98 | 3.63 | 117 µM | 50 µM
2 | [Cl][Hg][Cl] [Mercuric chloride] | 5.91 | 5.84 | 5.47 | 4.41 | 3.59 | 3.72 | 3.64 | 7.77 µM | 5 µM
3 | CN(C)[C@@H]1C(=O)C(C(N)=O)=C(O)[C@@]2(O)C(=O)C3=C(O)c4c(O)cccc4[C@@](C)(O)[C@H]3[C@H](O)[C@@H]12 [Oxytetracycline dihydrate] | 5.86 | 6.02 | 6.01 | 5.95 | 5.87 | 5.83 | 5.46 | > 200 µM | 200 µM
4 | Cc1cc(N=Nc2ccccc2C)ccc1N [Fast Garnet GBC base] | 5.83 | 5.71 | 5.55 | 5.5 | 3.45 | 3.57 | 3.77 | 14.9 µM | 5 µM
5 | O=C(O)C1C(C(=O)O)C2(Cl)C(Cl)=C(Cl)C1(Cl)C2(Cl)Cl (centres undefined) [Chlorendic acid] | 5.71 | 5.85 | 5.82 | 5.84 | 5.76 | 5.65 | 5.45 | > 200 µM | 100 µM
6 | CO/C=C(/C(=O)OC)c1ccccc1Oc1cc(Oc2ccccc2C#N)ncn1 [Azoxystrobin] | 5.84 | 5.87 | 5.93 | 5.9 | 5.8 | 5.85 | 5.5 | > 200 µM | 200 µM
